Data taken from ChEMBL document CHEMBL1125859, “Synthesis and evaluation of antiinflammatory activities of a series of corticosteroid 17 alpha-esters containing a functional group” (J Med Chem, 1991).

Experiments:
[1] = target: T1, Glucocorticoid receptor (Rattus norvegicus, UniProt P06536); test: Competitive displacement of [3H]dexamethasone from glucocorticoid receptor of rat liver cytosol
T1 sequence (P06536 whole entry): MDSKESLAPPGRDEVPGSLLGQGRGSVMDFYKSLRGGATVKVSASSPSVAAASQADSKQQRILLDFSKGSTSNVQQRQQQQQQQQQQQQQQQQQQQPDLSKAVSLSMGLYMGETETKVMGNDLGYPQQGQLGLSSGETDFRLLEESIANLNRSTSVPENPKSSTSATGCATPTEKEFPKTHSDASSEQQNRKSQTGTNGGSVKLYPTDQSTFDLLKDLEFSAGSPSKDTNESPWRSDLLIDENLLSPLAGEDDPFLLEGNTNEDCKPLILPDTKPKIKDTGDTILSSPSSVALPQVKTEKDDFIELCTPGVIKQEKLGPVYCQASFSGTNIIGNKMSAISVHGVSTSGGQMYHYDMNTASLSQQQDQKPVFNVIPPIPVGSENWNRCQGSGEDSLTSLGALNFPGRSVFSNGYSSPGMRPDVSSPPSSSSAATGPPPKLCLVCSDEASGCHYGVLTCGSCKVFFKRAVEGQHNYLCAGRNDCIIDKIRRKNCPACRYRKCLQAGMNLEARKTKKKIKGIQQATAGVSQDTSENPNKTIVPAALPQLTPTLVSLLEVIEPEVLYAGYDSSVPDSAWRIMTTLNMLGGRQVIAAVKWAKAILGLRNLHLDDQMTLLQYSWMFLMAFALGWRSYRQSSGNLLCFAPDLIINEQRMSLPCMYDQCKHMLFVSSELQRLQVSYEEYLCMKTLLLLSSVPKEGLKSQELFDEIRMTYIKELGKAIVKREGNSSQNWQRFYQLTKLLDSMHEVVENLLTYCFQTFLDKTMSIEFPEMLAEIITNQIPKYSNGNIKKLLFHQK

[2] = species on record: Mus musculus; test: Anti-inflammatory activity in mouse croton oil ear assay relative to clobetasol propionate; assay type: functional
[3] = species on record: Rattus norvegicus; test: The thymolytic activity was measured relative to clobetasol propionate (CP=1) in rat granuloma pouch assay system; assay type: functional
[4] = It is the ratio of topical(edema inhibition) to systemic (thymolysis) activities.; assay type: functional
[5] = species on record: Rattus norvegicus; test: The thymolytic activity was measured relative to clobetasol propionate (CP=1) in rat granuloma pouch assay system; granuloma inhibition or thymolytic activity was not detected up to 100 ug/pouch; assay type: functional

Row | SMILES | IC50 [1] | Fold_activity [2] | Thymolysis [3] | Ratio [4] | Thymolysis [5]
1 | CCOC(=O)CCCC(=O)O[C@]1(C(=O)CCl)[C@@H](C)CC2C3CCC4=CC(=O)C=CC4(C)[C@@]3(F)[C@@H](O)CC21C (stereo not given in full) | 9.68 nM | 0.68 | – | – | –
2 | CCC(=O)OCC(=O)[C@@]1(OC(=O)CC)[C@@H](C)C[C@H]2[C@@H]3CCC4=CC(=O)C=C[C@]4(C)[C@@]3(F)[C@@H](O)C[C@@]21C [BETAMETHASONE DIPROPIONATE] | – | – | 0.03 | – | –
3 | COCC(=O)O[C@]1(C(=O)CCl)[C@@H](C)CC2C3CCC4=CC(=O)C=CC4(C)[C@@]3(F)[C@@H](O)CC21C (stereo not given in full) | – | 0.11 | – | – | –
4 | C[C@H]1CC2C3CCC4=CC(=O)C=CC4(C)[C@@]3(F)[C@@H](O)CC2(C)[C@@]1(OC(=O)C1CC1)C(=O)CCl (stereo not given in full) | – | 0.44 | 1.3 | 0.34 | –
5 | CCOC(=O)CCC(=O)O[C@]1(C(=O)CCl)[C@@H](C)CC2C3CCC4=CC(=O)C=CC4(C)[C@@]3(F)[C@@H](O)CC21C (stereo not given in full) | – | 0.56 | – | – | –
6 | C[C@H]1CC2C3CCC4=CC(=O)C=CC4(C)[C@@]3(F)[C@@H](O)CC2(C)[C@@]1(OC(=O)CCl)C(=O)CCl (stereo not given in full) | – | 0.25 | – | – | –
7 | COCCC(=O)O[C@]1(C(=O)CCl)[C@@H](C)CC2C3CCC4=CC(=O)C=CC4(C)[C@@]3(F)[C@@H](O)CC21C (stereo not given in full) | – | 0.38 | 0.05 | 7.6 | –
8 | C[C@H]1CC2C3CCC4=CC(=O)C=CC4(C)[C@@]3(F)[C@@H](O)CC2(C)[C@@]1(OC(=O)CC1CC1)C(=O)CCl (stereo not given in full) | – | 0.51 | 1.1 | 0.46 | –
9 | C[C@H]1CC2C3CCC4=CC(=O)C=CC4(C)[C@@]3(F)[C@@H](O)CC2(C)[C@@]1(OC(=O)CCCCl)C(=O)CCl (stereo not given in full) | – | 0.66 | 0.12 | 5.5 | –
10 | CCC(=O)O[C@]1(C(=O)CCl)[C@@H](C)C[C@H]2[C@@H]3CCC4=CC(=O)C=C[C@]4(C)[C@@]3(F)[C@@H](O)C[C@@]21C [CLOBETASOL PROPIONATE] | 3.17 nM | 1 | 1 | 1 | –
11 | C[C@H]1CC2C3CCC4=CC(=O)C=CC4(C)[C@@]3(F)[C@@H](O)CC2(C)[C@@]1(OC(=O)CCC(=O)O)C(=O)CCl (stereo not given in full) | > 150 nM | <0.01 | – | – | –
12 | CC(C)OC(=O)CCC(=O)O[C@]1(C(=O)CCl)[C@@H](C)CC2C3CCC4=CC(=O)C=CC4(C)[C@@]3(F)[C@@H](O)CC21C (stereo not given in full) | 12.1 nM | 0.11 | – | – | –
13 | C[C@H]1CC2C3CCC4=CC(=O)C=CC4(C)[C@@]3(F)[C@@H](O)CC2(C)[C@@]1(OC(=O)CCC(=O)OC(C)(C)C)C(=O)CCl (stereo not given in full) | 10.8 nM | 0.19 | – | – | –
14 | COC(=O)CCC(=O)O[C@]1(C(=O)CCl)[C@@H](C)CC2C3CCC4=CC(=O)C=CC4(C)[C@@]3(F)[C@@H](O)CC21C (stereo not given in full) | 5.18 nM | 1.3 | – | > 130 | < 0.01
15 | CC(=O)OCCC(=O)O[C@]1(C(=O)CCl)[C@@H](C)CC2C3CCC4=CC(=O)C=CC4(C)[C@@]3(F)[C@@H](O)CC21C (stereo not given in full) | – | 0.28 | 0.015 | 18.6 | –
16 | CSCC(=O)O[C@]1(C(=O)CCl)[C@@H](C)CC2C3CCC4=CC(=O)C=CC4(C)[C@@]3(F)[C@@H](O)CC21C (stereo not given in full) | – | 0.35 | 0.35 | 1 | –
17 | C[C@H]1CC2C3CCC4=CC(=O)C=CC4(C)[C@@]3(F)[C@@H](O)CC2(C)[C@@]1(OC(=O)CCC#N)C(=O)CCl (stereo not given in full) | – | 0.07 | – | – | –
18 | COC(=O)CCCC(=O)O[C@]1(C(=O)CCl)[C@@H](C)CC2C3CCC4=CC(=O)C=CC4(C)[C@@]3(F)[C@@H](O)CC21C (stereo not given in full) | – | 0.45 | – | – | –
